The values that follow come from US11091421B2, “Benzene fused heterocyclic derivative and pharmaceutical composition comprising the same” (TAIWANJ PHARMACEUTICALS CO., LTD., priority 2017, dated 2021).

Each structure is given as a SMILES string.

This experiment concerns the target autotaxin (Homo sapiens, UniProt Q13822). Kind of experiment: Autotaxin inhibitor screening assay (phosphodiesterase activity, p-nitrophenol cleaved from bis-(p-nitrophenyl) phosphate, absorbance 410 nm). Type of experiment: biochemical. The following applies: pH 9, compound at 30 μM; BNPP 3 mM, pH 9.0, 37° C., 30 minutes; read-out: Inhibition. How it is done: As described above, the compounds in the present disclosure have the effect of inhibiting the activity of autotaxin, and can be used as autotaxin inhibitors. One method for inhibiting activity of autotaxin in environment is administering to the environment an effective amount of the compound of Formula (I). Please refer to the following experiment, the phosphodiesterase activity of autotaxin was measured using the p-nitrophenol that is a yellow product cleaved by autotaxin from the bis-(p-nitrophenyl) phosphate. Compound samples (10 μl) were incubated with autotaxin (10 μl) in a final volume of 200 μl assay buffer (5 mM CaCl2, 50 mM Tris-HCl, pH 9.0) containing bis-(p-nitrophenyl) phosphate (BNPP) at a final concentration of 3 mM at 37° C. After 30 minutes, absorbance at 410 nm of the reacted solution was measured. The percent inhibition for each test article (TA) (compound) was determined using the following equation. % Inhibition=(O.D.vehicle−O.D.TA)/O.D.vehicle×100
In general, inhibition refers to the share of the control response that was lost under treatment. For the compound `O=C(Nc1ccc(CC2CCc3cc(O)ccc3C2=O)cc1)Nc1cc(Cl)cc(Cl)c1` (stereo not drawn) [Compound 118], the inhibition at 30 µM is less than 50%. For `O=C(O)COc1ccc(COc2ccc3c(c2)C/C(=C\c2cc(Cl)cc(Cl)c2)C3=O)cc1` [Compound 131], the inhibition at 30 µM was more than 80%.

Turning to `CNS(=O)(=O)c1ccc(COc2ccc3c(c2)C/C(=C\c2cc(Cl)cc(Cl)c2)C3=O)cc1` [Compound 123], the inhibition at 30 µM is less than 50%. As to `CNC(=O)c1ccc(COc2ccc3c(c2)C/C(=C\c2cc(Cl)cc(Cl)c2)C3=O)cc1` [Compound 120], the inhibition at 30 µM is more than 80%. As to `O=C(NCc1cc(F)ccc1F)c1ccc(CC2Cc3cc(O)ccc3C2=O)cc1` (stereo not drawn) [Compound 32], the inhibition at 30 µM was less than 50%. In the case of `O=C(O)c1cc(CC2CCc3cc(OCCc4cc(F)ccc4F)ccc3C2=O)ccc1O` (stereo not drawn) [Compound 52], the inhibition at 30 µM was 50 to 80%. As for `O=C1/C(=C/c2ccc(OCc3cc(F)c(F)cc3F)cc2)CCc2cc(O)ccc21` [Compound 99], the inhibition at 30 µM is less than 50%. Regarding `O=C(O)c1ccc(COc2ccc3c(c2)C/C(=C\c2cc(Cl)cc(C(F)(F)F)c2)C3=O)cc1` [Compound 129], the inhibition at 30 µM fell in the range of 50 to 80%. The figure for `O=C(O)c1ccc(/C=C2\CCc3c(OCc4cc(F)c(F)cc4F)cccc3C2=O)cc1` [Compound 46] is 50 to 80%; for `O=C1/C(=C/c2ccc(C(F)(F)F)cc2)CCc2cc(OCc3ccc(F)c(F)c3)ccc21` [Compound 92] it is 50 to 80%. In the case of `O=C(O)c1ccc(COc2ccc3c(c2)C/C(=C\c2ccc(Cl)cc2)C3=O)cc1` [Compound 5], the inhibition at 30 µM is more than 80%.

Regarding `O=C(NCc1cc(F)ccc1F)c1ccc(CC2CCc3cc(O)ccc3C2=O)cc1` (stereo not drawn) [Compound 56], the inhibition at 30 µM was less than 50%.
